Reference: patent publication US7875618B2, “Substituted imidazo[1,5-a]quinoxalines useful as inhibitors of phosphodiesterase 10 for the treatment of neurological and other disorders” (Wyeth, priority 2007, dated 2011)

How the values were obtained:
PDE10 from pig striatum = PDE10 from pig striatum (Sus scrofa, UniProt A0A287B941); assay: Inhibition of PDE10 from pig striatum ([3H]-cAMP SPA, Methods A and B); type: biochemical; settings: PDE10 pig
Procedure: Striatum from male Wistar rats (180-200 g), male hybrid pigs (150 kg) and male guinea pigs (CRL (HA), 500 g) respectively were collected and frozen at −70° C. At the day of preparation 0.5 g striatum was homogenised in 10 ml 50 mM Tris/Mg-buffer at 4° C. and centrifuged for one hour at 100000 g. The supernatant is called the cytosolic fraction and was removed and stored on ice. The pellet was resuspended in the same buffer, but containing 1% Triton and incubated for 45 min at 4° C. Both fractions were independently applied onto a 5 ml Hi Trap™ QHP column at the Äkta-FPLC. After washing the columns the bound PDE protein was eluted with an increasing sodium chloride gradient (0 mM-500 mM sodium chloride) in 50 mM Tris/Mg-buffer at 4° C. for the cytosolic fraction and in the presence of 1% Triton for the membrane fraction. […] The fractions with PDE10-activity were pooled and frozen in aliquots until use at −20° C. PDE10 activity was determined in a one step procedure in microtiter plates. […] Nonspecific activity was tested without the enzyme. The reaction was initiated by addition of the substrate solution and was carried out at 37° C. for 30 minutes. Enzymatic activity was stopped by addition of 25 μl YSi-SPA-beads (Amersham-Pharmacia). One hour later the mixture was measured in a liquid scintillation counter for microtiter plates (Microbeta Trilux). To pipette the incubation mixture a robot Biomek (Fa. Beckman) is used. […] For determination of IC50 values the Hill-plot, 2-parameter-model, was used. […] Striatum from male hybrid pigs (150 kg) were collected and frozen at −70° C. At the day of preparation 0.5 g striatum was homogenised in 10 ml 50 mM Tris/Mg-buffer at 4° C. and centrifuged for one hour at 100000 g. The supernatant was removed and the pellet was resuspended in the same buffer, but containing 1% Triton and incubated for 45 min at 4° C. The membrane fraction was applied onto a 5 ml Hi Trap™ QHP column at the Äkta-FPLC. After washing the column the bound PDE protein was eluted with an increasing sodium chloride gradient (0 mM-500 mM sodium chloride) in 50 mM Tris/Mg-buffer at 4° C. in the presence of 1% Triton. […] The fractions with PDE10-activity were pooled and frozen in aliquots until use at −20° C. PDE10 activity was determined in a one step procedure in microtiterplates. […] Nonspecific activity was tested without the enzyme. The reaction was initiated by addition of the substrate solution and was carried out at 37° C. for 30 minutes. Enzymatic activity was stopped by addition of 25 μl YSi-SPA-beads (Amersham-Pharmacia). One hour later the mixture was measured in a liquid scintillation counter for microtiterplates (Microbeta Trilux). To pipette the incubation mixture a robot Biomek (Fa. Beckman) is used. […] For determination of IC50 values the Hill-plot, 2-parameter-model, was used.

human recombinant PDE10A = biological target: T1, human recombinant PDE10A (Homo sapiens, UniProt Q9Y233); assay: Inhibition of human recombinant PDE10A ([3H]-cAMP SPA, Method B); type: biochemical; settings: read-out: PDE10 inhibition IC50 [nM] PDE10A human
T1 construct: made in house; host or cells: SF21 insect cells (baculovirus)
T1 sequence (Q9Y233 1-779 isoform Q9Y233-1): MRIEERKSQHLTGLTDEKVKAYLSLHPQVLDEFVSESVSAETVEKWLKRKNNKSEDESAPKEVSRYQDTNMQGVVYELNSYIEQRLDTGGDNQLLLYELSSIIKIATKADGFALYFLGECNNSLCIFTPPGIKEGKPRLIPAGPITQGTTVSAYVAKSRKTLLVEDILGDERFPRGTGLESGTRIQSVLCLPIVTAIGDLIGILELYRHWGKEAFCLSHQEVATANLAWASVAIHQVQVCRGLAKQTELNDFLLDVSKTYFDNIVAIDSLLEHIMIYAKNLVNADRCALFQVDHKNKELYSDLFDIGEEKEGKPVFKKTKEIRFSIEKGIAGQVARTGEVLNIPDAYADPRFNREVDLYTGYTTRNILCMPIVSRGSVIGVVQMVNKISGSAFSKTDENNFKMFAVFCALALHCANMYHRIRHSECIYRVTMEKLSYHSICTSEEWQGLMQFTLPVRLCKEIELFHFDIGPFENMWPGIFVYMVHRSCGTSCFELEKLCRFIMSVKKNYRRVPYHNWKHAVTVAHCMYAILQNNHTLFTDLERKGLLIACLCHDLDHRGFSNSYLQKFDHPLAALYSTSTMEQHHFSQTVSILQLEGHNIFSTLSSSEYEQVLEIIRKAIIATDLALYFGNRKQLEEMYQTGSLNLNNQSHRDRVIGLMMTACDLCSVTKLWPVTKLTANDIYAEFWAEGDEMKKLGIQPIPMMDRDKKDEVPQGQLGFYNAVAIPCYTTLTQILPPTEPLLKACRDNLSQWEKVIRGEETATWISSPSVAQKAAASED
Procedure: The gene was than inserted into a baculovirus vector, ligated with the baculovirus DNA. The enzyme-protein was expressed in SF21-cells. The enzyme was isolated from these cells by harvesting the cells by a centrifugation at 200 g to collect the cells. The cells were resuspended in 50 mM Tris-HCl/5 mM MgCl2 buffer (pH=7.4) and lysed by a sonication of the cells. The cytosolic PDE10A was obtained by a centrifugation at 48000 g for 1 h in the supernatant and stored at −70° C. PDE10 activity was determined in a one step procedure in microtiterplates. […] Nonspecific activity was tested without the enzyme. The reaction was initiated by addition of the substrate solution and was carried out at 37° C. for 30 minutes. Enzymatic activity was stopped by addition of 25 μl YSi-SPA-beads (Amersham-Pharmacia). One hour later the mixture was measured in a liquid scintillation counter for microtiterplates (Microbeta Trilux). To pipette the incubation mixture a robot Biomek (Fa. Beckman) is used. […] For determination of IC50 values the Hill-plot, 2-parameter-model, was used.

Row | melting point [°C] | IC50 (PDE10 from pig striatum) [nM] | IC50 (human recombinant PDE10A) [nM] | Molecule
1 | 154 to 159 | – | – | CCCc1nc(C)c2c(Cl)nc3cc(OC)ccc3n12 [Intermediate B15]
2 | – | ≤ 10 | ≤ 10 | Cc1nc(-c2ccccc2Cl)n2c1c(C)nc1cc(OCc3ccc4ccccc4n3)ccc12 [Example 58, 1-(2-Chloro-phenyl)-7-(quinolin-2-ylmethoxy)-3,4-dimethyl-imidazo(1,5-a)quinoxaline]
3 | – | ≤ 10 | 10 to 100 | Cc1nc(-c2ccccc2Cl)n2c1c(C)nc1cc(OCc3cccc([N+](=O)[O-])c3)ccc12 [Example 59, 1-(2-Chloro-phenyl)-3,4-dimethyl-7-(3-nitrobenzyloxy)-imidazo(1,5-a)quinoxaline]
4 | – | ≤ 10 | 10 to 100 | CNC(=O)Nc1cccc(COc2ccc3c(c2)nc(C)c2c(C)nc(-c4ccccc4Cl)n23)c1 [Example 61, N-1-{3-[1-(2-Chlorophenyl)-3,4-dimethyl-imidazo(1,5-a)quinoxalin-7-yloxymethyl]-phenyl}-N′-methyl-urea]
5 | – | ≤ 10 | ≤ 10 | Cc1ccccc1-c1nc(C)c2c(C)nc3c(OC(F)F)cc(OC(F)F)cc3n12 [Example 56, 6,8-Bis-difluoromethoxy-3,4-dimethyl-1-(2-methylphenyl)-imidazo(1,5-a)quinoxaline]
6 | – | ≤ 10 | – | Cc1nc(-c2ccccc2Cl)n2c1c(Cl)nc1ccc(F)cc12 [Intermediate B8]
7 | – | ≤ 10 | 10 to 100 | Cc1nc(-c2ccccc2Cl)n2c1c(C)nc1cc(OCc3c(F)cccc3F)ccc12 [Example 57, 1-(2-Chloro-phenyl)-7-(2,6-difluorobenzyloxy)-3,4-dimethyl-imidazo(1,5-a)quinoxaline]
8 | – | 10 to 100 | 10 to 100 | Cc1nc(-c2ccccc2Cl)n2c1c(C)nc1cc(O)ccc12 [Example 55, 1-(2-Chlorophenyl)-3,4-dimethyl-7-hydroxy-imidazo(1,5-a)quinoxaline]
9 | – | ≤ 10 | 10 to 100 | Cc1ccccc1-c1nc(C)c2c(C)nc3c(O)cc(O)cc3n12 [Example 54, 6,8-Dihydroxy-3,4-dimethyl-1-(2-methylphenyl)-imidazo[1,5-a]quinoxaline]
10 | – | ≤ 10 | – | COc1cc(F)cc2c1nc(C)c1c(C)nc(-c3ccc(F)c(C(N)=O)c3)n12 [Example 86, 2-fluoro-5-(8-fluoro-6-methoxy-3,4-dimethylimidazo[1,5-a]quinoxalin-1-yl)benzamide]
11 | – | 10 to 100 | – | CCc1nc(C)c2c(Cl)nc3ccc(N4CCCCC4)cc3n12 [Intermediate B2, 4-Chloro-1-ethyl-3-methyl-8-piperidin-1-yl-imidazo(1,5-a)quinoxaline]
12 | – | ≤ 10 | 10 to 100 | Cc1nc(-c2ccccc2Cl)n2c1c(C)nc1cc(OCc3cccc(N)c3)ccc12 [Example 60, 7-(3-Aminobenzyloxy)-1-(2-chlorophenyl)-3,4-dimethyl-imidazo(1,5-a)quinoxaline]
13 | 212 to 215 | – | – | COc1ccc2nc(Cl)c3c(C)nc(C4CCCCC4)n3c2c1 [Intermediate B11]
14 | 165 to 168 | – | – | Cc1nc(C2CCCCC2)n2c1c(Cl)nc1ccc(OCC3CC3)cc12 [Intermediate B13]

The remaining lines, values behind:

Row | Molecule | melting point [°C] | IC50 (PDE10 from pig striatum) [nM] | IC50 (human recombinant PDE10A) [nM]
15 | COc1cccc(-c2nc(C)c3c(C)nc4ccc(F)cc4n23)c1 [Example 24, 8-Fluoro-1-(3-methoxyphenyl)-3,4-dimethylimidazo[1,5-a]quinoxaline] | – | ≤ 10 | –
16 | COc1ccc2nc(N)c3c(C)nc(C4CCCCC4)n3c2c1 [Example 38, 1-Cyclohexyl-8-methoxy-3-methyl-imidazo[1,5-a]quinoxalin-4-ylamine] | 211 to 212 | – | 10 to 100
17 | COc1ccccc1-c1nc(C)c2c(C)nc3ccc(F)cc3n12 [Example 23, 8-Fluoro-1-(2-methoxyphenyl)-3,4-dimethylimidazo[1,5-a]quinoxaline] | – | 10 to 100 | –
18 | Cc1nc(-c2cccc(Cl)c2)n2c1c(C)nc1ccc(F)cc12 [Example 21, 1-(3-Chlorophenyl)-8-fluoro-3,4-dimethylimidazo[1,5-a]quinoxaline] | – | 10 to 100 | –
19 | 7-Methoxy-3-methyl-1-propyl-imidazo[1,5-a]quinoxalin-4-ylamine [Example 41] | – | 10 to 100 | 10 to 100
20 | Cc1nc(-c2cc(Cl)cc(Cl)c2)n2c1c(C)nc1ccc(F)cc12 [Example 20, 1-(3,5-Dichlorophenyl)-8-fluoro-3,4-dimethylimidazo[1,5-a]quinoxaline] | – | 10 to 100 | –
21 | Cc1nc(-c2ccccc2Cl)n2c1c(N)nc1ccc(F)cc12 [Example 8, 1-(2-Chlorphenyl)-8-fluoro-3-methyl-imidazo(1,5-a)quinoxalin-4-ylamine] | – | ≤ 10 | –
22 | CCc1nc(C)c2c(N)nc3ccc(N4CCCCC4)cc3n12 [Example 1, 1-Ethyl-3-methyl-8-piperidin-1-yl-imidazo(1,5-a)quinoxalin-4-ylamine] | – | ≥ 100 | –
23 | Cc1nc(-c2cc(Cl)ccc2Cl)n2c1c(C)nc1ccc(F)cc12 [Example 19, 1-(2,5-Dichlorophenyl)-8-fluoro-3,4-dimethylimidazo[1,5-a]quinoxaline] | – | 10 to 100 | –
24 | CCCc1nc(C)c2c(C)nc3ccccc3n12 [Example 9, 3,4-Dimethyl-1-propyl-imidazo(1,5-a)quinoxaline] | – | 10 to 100 | –
25 | Cc1nc(-c2ccc(F)cc2F)n2c1c(C)nc1ccc(F)cc12 [Example 22, 1-(2,4-Difluorophenyl)-8-fluoro-3,4-dimethylimidazo[1,5-a]quinoxaline] | – | 10 to 100 | –
26 | Cc1nc(-c2ccccc2Cl)n2c1c(C)nc1ccc(F)cc12 [Example 15, 1-(2-Chlorphenyl)-3,4-dimethyl-8-fluoro-imidazo(1,5-a)quinoxaline] | – | ≤ 10 | 10 to 100
27 | Cc1cccc(-c2nc(C)c3c(C)nc4ccc(F)cc4n23)c1 [Example 26, 8-Fluoro-3,4-dimethyl-1-(3-methylphenyl)imidazo[1,5-a]quinoxaline] | – | 10 to 100 | –
28 | Cc1ccccc1-c1nc(C)c2c(C)nc3ccc(F)cc3n12 [Example 25, 8-Fluoro-3,4-dimethyl-1-(2-methylphenyl)imidazo[1,5-a]quinoxaline] | – | ≤ 10 | –
29 | Cc1nc(-c2ccccc2OC(F)(F)F)n2c1c(C)nc1ccc(F)cc12 [Example 28, 8-Fluoro-3,4-dimethyl-1-[2-(trifluoromethoxy)phenyl]imidazo[1,5-a]quinoxaline] | – | 10 to 100 | ≥ 100
30 | Cc1noc(C)c1-c1nc(C)c2c(C)nc3ccc(F)cc3n12 [Example 30, 1-(3,5-Dimethylisoxazol-4-yl)-8-fluoro-3,4-dimethylimidazo[1,5-a]quinoxaline] | – | ≥ 100 | –
31 | Cc1nc(-c2ccccc2C(F)(F)F)n2c1c(C)nc1ccc(F)cc12 [Example 27, 8-Fluoro-3,4-dimethyl-1-[2-(trifluoromethyl)phenyl]imidazo[1,5-a]quinoxaline] | – | 10 to 100 | –
32 | CCCc1nc(C)c2c(OC)nc3ccc(F)cc3n12 [Example 18, 8-Fluoro-4-methoxy-3-methyl-1-propyl-imidazo(1,5-a)quin-oxaline] | – | 10 to 100 | –
33 | Cc1ccsc1-c1nc(C)c2c(C)nc3ccc(F)cc3n12 [Example 29, 8-Fluoro-3,4-dimethyl-1-(3-methyl-2-thienyl)imidazo[1,5-a]quinoxaline] | – | 10 to 100 | 10 to 100
34 | Cc1nc(C2CCCCC2)n2c1c(N)nc1ccc(F)cc12 [Example 2, 1-Cyclohexyl-8-fluoro-3-methyl-imidazo(1,5-a)quinoxalin-4-yl-amine] | – | 10 to 100 | –
